Earlier results in patent US20050004032A1, “Collagen mimics” (priority 2003, published 2005).

| Substance | Tm, temperature at the midpoint of the thermal transition as measured by CD spectroscopy (literature values per Table 1 footnotes b-f, some reported for the 10-repeat peptides) | melting temperature of a triple helix (Sakakibara et al. 1973) [°C] |
| --- | --- | --- |
| (ProProGly)7 | 6-7^c ° C. |  |
| (ProProGly)10 |  | 24 |
